# Data as given in PubChem BioAssay (NCI).
#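 These data come from cells grown in 96-well plates and exposed to compound for 48 hours at five concentrations. TGI: total growth inhibition.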
# Legend:
# Assay in all cases: inhibition of tumour cell growth, NCI panel, 48 h
# [1] = system: ACHN renal
# [2] = system: SK-OV-3 ovarian
# [3] = system: OVCAR-5 ovarian
# [4] = system: HOP-18 NSCLC
# [5] = system: SF-268 CNS
# [6] = system: EKVX NSCLC
# [7] = system: DLD-1 colon
# [8] = system: K-562 leukemia
# [9] = system: HCT-15 colon
# [10] = system: UACC-62 melanoma
# [11] = system: OVCAR-3 ovarian
# [12] = system: 786-0 renal
# [13] = system: HL-60(TB) leukemia
# [14] = system: U251 CNS
# [15] = system: CAKI-1 renal
# [16] = system: MOLT-4 leukemia
# [17] = system: MALME-3M melanoma
# [18] = system: HOP-92 NSCLC
# [19] = system: M19-MEL melanoma
# [20] = system: NCI-H460 lung
# [21] = system: M14 melanoma
# [22] = system: HCT-116 colon
# [23] = system: SW-620 colon
# [24] = system: OVCAR-8 ovarian
# [25] = system: OVCAR-4 ovarian
# [26] = system: HCC-2998 colon
# [27] = system: LXFL 529 NSCLC
# [28] = system: SF-539 CNS
# [29] = system: A549 NSCLC
# [30] = system: RXF-631 renal
# [31] = system: COLO 205 colon
# [32] = system: NCI-H226 lung
# [33] = system: SN12C renal
# [34] = system: HT29 colon
# [35] = system: A498 renal
# [36] = system: DMS 273 small cell lung
# [37] = system: SF-295 CNS
# [38] = system: SK-MEL-5 melanoma
# [39] = system: SNB-78 CNS
# [40] = system: KM20L2 colon
# [41] = system: SK-MEL-28 melanoma
# [42] = system: IGROV1 ovarian
# [43] = system: UACC-257 melanoma
# [44] = system: NCI-H23 lung
# [45] = system: RPMI-8226 leukemia
# [46] = system: KM12 colon
# [47] = system: DMS 114 small cell lung
# [48] = system: UO-31 renal
# [49] = system: TK-10 renal
# [50] = system: SNB-75 CNS
# [51] = system: CCRF-CEM leukemia
# [52] = system: SNB-19 CNS
# [53] = system: HOP-62 NSCLC
# [54] = system: SK-MEL-2 melanoma
# [55] = system: NCI-H522 lung
# [56] = system: RXF 393 renal
# [57] = system: LOX IMVI melanoma
structure (smiles),measurement,setting,value
O=C(/C=C/c1ccccc1Cl)c1ccc(Cl)cc1Cl,TGI,[1],32 µM
same,TGI,[2],35.6 µM
same,TGI,[3],30.8 µM
same,TGI,[4],31.2 µM
same,TGI,[5],31.3 µM
same,TGI,[6],32.9 µM
same,TGI,[7],32.3 µM
same,TGI,[8],11.7 µM
same,TGI,[9],25.4 µM
same,TGI,[10],27.6 µM
same,TGI,[11],31.6 µM
same,TGI,[12],31.4 µM
same,TGI,[13],46.3 µM
same,TGI,[14],25.5 µM
same,TGI,[15],28.4 µM
same,TGI,[16],26 µM
same,TGI,[17],33.5 µM
same,TGI,[18],39 µM
same,TGI,[19],31.9 µM
same,TGI,[20],31.6 µM
same,TGI,[21],32 µM
same,TGI,[22],20.5 µM
same,TGI,[23],3.36 µM
same,TGI,[24],29.3 µM
same,TGI,[25],29.7 µM
same,TGI,[26],33.1 µM
same,TGI,[27],29.7 µM
same,TGI,[28],38.5 µM
same,TGI,[29],39.8 µM
same,TGI,[30],34.6 µM
same,TGI,[31],32.1 µM
same,TGI,[32],31.5 µM
same,TGI,[33],32.2 µM
same,TGI,[34],28 µM
same,TGI,[35],33.3 µM
same,TGI,[36],29.6 µM
same,TGI,[37],36.3 µM
same,TGI,[38],28.6 µM
same,TGI,[39],36.2 µM
same,TGI,[40],28.3 µM
same,TGI,[41],24.8 µM
same,TGI,[42],27.6 µM
same,TGI,[43],29.7 µM
same,TGI,[44],37.9 µM
same,TGI,[45],37.5 µM
same,TGI,[46],24.1 µM
same,TGI,[47],26.3 µM
same,TGI,[48],36.9 µM
same,TGI,[49],31.7 µM
same,TGI,[50],37.4 µM
same,TGI,[51],17.4 µM
same,TGI,[52],28.8 µM
same,TGI,[53],42.1 µM
CC(=O)/C=C/c1ccc(C)cc1,TGI,[1],> 100 µM
same,TGI,[2],> 100 µM
same,TGI,[3],> 100 µM
same,TGI,[54],> 100 µM
same,TGI,[4],> 100 µM
same,TGI,[5],> 100 µM
same,TGI,[55],> 100 µM
same,TGI,[6],> 100 µM
same,TGI,[7],> 100 µM
same,TGI,[8],> 100 µM
same,TGI,[9],> 100 µM
same,TGI,[10],> 100 µM
same,TGI,[11],> 100 µM
same,TGI,[12],> 100 µM
same,TGI,[13],> 100 µM
same,TGI,[14],> 100 µM
same,TGI,[15],> 100 µM
same,TGI,[16],> 100 µM
same,TGI,[17],> 100 µM
same,TGI,[18],> 100 µM
same,TGI,[19],> 100 µM
same,TGI,[20],> 100 µM
same,TGI,[21],> 100 µM
same,TGI,[56],> 100 µM
same,TGI,[22],> 100 µM
same,TGI,[23],> 100 µM
same,TGI,[24],> 100 µM
same,TGI,[25],> 100 µM
same,TGI,[26],> 100 µM
same,TGI,[27],> 100 µM
same,TGI,[28],> 100 µM
same,TGI,[57],> 100 µM
same,TGI,[29],> 100 µM
same,TGI,[31],> 100 µM
same,TGI,[32],> 100 µM
same,TGI,[33],> 100 µM
same,TGI,[34],> 100 µM
same,TGI,[35],> 100 µM
same,TGI,[36],> 100 µM
same,TGI,[37],> 100 µM
same,TGI,[38],> 100 µM
same,TGI,[39],> 100 µM
same,TGI,[40],> 100 µM
same,TGI,[41],> 100 µM
same,TGI,[42],> 100 µM
same,TGI,[43],> 100 µM
same,TGI,[44],> 100 µM
same,TGI,[45],> 100 µM
same,TGI,[46],> 100 µM
same,TGI,[47],> 100 µM
same,TGI,[48],> 100 µM
same,TGI,[49],> 100 µM
same,TGI,[50],> 100 µM
same,TGI,[51],> 100 µM
same,TGI,[52],> 100 µM
same,TGI,[53],> 100 µM
